Measured values from patent US8889411B2, “Modulation of stem and progenitor cell differentiation, assays, and uses thereof” (Anthrogenesis Corporation, priority 2002, dated 2014).

How the values were obtained:
[1] = test system: adult SJL/L mice with bone marrow ablation by lethal irradiation; test: Transplantation of ACTIMID-pretreated nucleated cells into lethally irradiated mice; assay type: in vivo, mouse; settings: for % Starting Body Weight at 50 days: irradiated mice
Description: Placental nucleated cells (PLNC), umbilical cord blood nucleated cells (UCBNC) and bone marrow cells (BMNC) were obtained from human donors. PLNC and UCBNC were obtained from placenta and umbilical cord using methods described in Section 5.4 above.
The cells were pretreated by incubation in DMEM supplemented with 2% human CB serum with 10 µg/ml ACTIMID™ for 24 hours. Cells were then washed, resuspended in autologous plasma, and administered intravenously to recipient adult SJL/L mice (Jackson Laboratories) that had bone marrow ablation produced by lethal irradiation (900cGy) according to standard methods. Such irradiation is better than 90% lethal by 50 days post-irradiation (Ende et al., 2001, Life Sciences 69(13):1531-1539; Chen and Ende, 2000, J. Med. 31: 21-30; Ende et al., 2000, Life Sci. 67(1):53-9; Ende and Chen, 2000, Am. J. Clin. Pathol. 114: 89).

[2] = test system: Bone marrow and cord blood CD34+ progenitor cells; test: Differentiation of CD34+ progenitor cells into dendritic cells, cell surface phenotype by flow cytometry; assay type: cell-based, human; parameters: key to Cell Population CD15+ / Cell Population CD34+ CD38− / Cell Population CD34− CD38+ / Cell Population CD1a+ CD14− / Cell Population CD1a− CD14+: ↑: up arrow indicates an increase in the cell population; ↓: down arrow indicates a decrease
Description: Bone marrow and cord blood CD34^+ progenitor cells were obtained from Clonetics and cultured in Iscove's MDM with BIT 95000 (StemCell Technologies) in the presence of SCF, Flt-3L, GM-CSF and TNF-α for 6 days, and then in the presence of GM-CSF and TNF-α for 6 additional days.
Analysis of cell surface phenotype: Cells were processed for double staining (30 min at 4° C.) at day 6 and day 12 using FITC and PE conjugated mAbs. Antibodies used were from BD Pharmingen: CD34 (PE), CD38 (FITC), CD33 (FITC), CD1a (FITC), CD86 (PE), CD14 (PE), CD83 (PE), CD54 (PE), CD11b (PE), CD11c (PE), HLA-DR (PE), CD15 (FITC), and CD133 (PE) from Miltenyi. Fluorescence analysis was performed on a FACScan flow cytometer after acquisition of 10,000 events (Coulter). Results presented are representative of four independent experiments.
The methodology described above, i.e., the examination of the effect of IMiDs such as ACTIMID™ on the differentiation on early progenitor cells, such as CD34^+ cells, can be applied to any compound of interest, the effect of which on differentiation is desired to be known. As an example of the extension of this assay method to other compounds, we compared the effect of retinoic acid (ATRA) and aspirin to that of ACTIMID™ on the differentiation of CD34^+ cells toward the DC lineage versus the control (DMSO-treated) cells. Retinoic acid was studied because of its known effect on cellular proliferation and differentiation, its therapeutic use in some cancer, and its known teratogenic effect. Conversely, we studied the effect of aspirin because it is a commonly-used anti-inflammatory drug with no immunomodulatory properties. The results at day 6 of CD34^+ progenitors cells cultured in the presence of SCF, Flt-3L, GM-CSF and TNF-α, with or without compound for a period of 6 days, are presented below in Table 2 (up arrow indicates an increase in the cell population; down arrow indicates a decrease).

[3] = test system: cells derived from CD34+ progenitor cells; test: Phagocytosis: FITC-dextran uptake (mannose receptor-mediated endocytosis); assay type: cell-based, human; settings: compared to DMSO control
Description: Phagocytosis: The endocytic activity of the cells was analyzed by measuring FITC-dextran uptake. Cells were incubated with 1 mg/ml dextran-FITC (Sigma) in complete medium at 37° C. for 1 hour and 4° C. for 1 hour as a negative control. Results presented are representative of two independent experiments.

[4] = test system: Murine Sca+Lin− hematopoietic progenitor cells; test: Generation of murine dendritic cells from bone marrow Sca+Lin− progenitors, cell surface phenotype; assay type: cell-based, mouse (C57BL/6)
Source text: Mouse bone marrow from inbred C57BL/6 mice was obtained from Clonetics. Hematopoietic Sca+Lin− progenitors were enriched using SpinSep murine progenitor enrichment cocktail (StemCell Technologies) and cultured in Iscove's MDM with BIT 95000 (StemCell Technologies) in the presence of murine growth factors SCF, Flt3L, GM-CSF and M-CSF for 9 days, to promote expansion of Sca+ cells and a DC precursor phenotype and then in the presence of GM-CSF and TNF-α for 3 additional days to drive the cells to an immature DC phenotype. Enriched Sca+Lin− cells were cultured in the presence of DMSO (0.1%), ACTIMID™ at 10 μM or all-trans retinoic acid (ATRA) (ICN Biomedicals) at 10 μM from day 0. Compounds were added to cells at day 0 and day 9.
Analysis of Murine cell surface phenotype: Murine cells were processed for double staining (14 min at RT) at day 9 and day 12; using FITC and PE conjugated mAbs. Antibodies used were from BD Pharmingen: Sea (PE), CD11b (FITC), Gr-1 (FITC), CD86 (PE), CD14 (PE), CD80 (PE), I-A^b (PE), CD40 (PE) and CD32.1/16.1 (FITC) from Miltenyi. Fluorescence analysis was performed on a FACScan flow cytometer (Coulter) after acquisition of 10,000 events.

[5] = Day 12, compound from day 6 to day 12
[6] = day 6, SCF, Flt-3L, GM-CSF and TNF-α, versus DMSO-treated control
[7] = 10 μM, added at day 0 and day 9

**Q.** With `Nc1cccc2c1C(=O)N(C1CCC(=O)NC1=O)C2=O` (stereo not shown) [ACTIMID™, 4-(Amino)-2-(2,6-dioxo(3-piperidyl))-isoindoline-1,3-dione] as the molecule, how does the “survival of transplanted PLNC, UCBNC and BMNC” value ([1]; ACTIMID pre-treatment of cells) read?
**A.** Its value is “increases the survival”.

**Q.** What about the “# of Animals Dead at 50 days” value ([1]; PLNC 5 × 10^6 + ACTIMID pre-treatment (10 g/ml, 24 hours) intravenous, 4 animals irradiated (900cGy)) of the same molecule?
**A.** Its value is 0.

**Q.** What about the “% Starting Body Weight at 50 days” value ([1]; PLNC 5 × 10^6 + ACTIMID pre-treatment intravenous) of the same molecule?
**A.** Its value is 102%.

**Q.** And the “# of Animals Dead at 50 days” value ([1]; UCBNC 10 × 10^6 + ACTIMID pre-treatment intravenous, 3 animals irradiated (900cGy))?
**A.** Its value is 0.

**Q.** What about the “% Starting Body Weight at 50 days” value ([1]; UCBNC 10 × 10^6 + ACTIMID pre-treatment intravenous) of the same molecule?
**A.** Its value is 84%.

**Q.** And the “toxic effects on CD34+ cells” value [2]?
**A.** Its value is “no toxic effects”.

**Q.** What about the “CD34+CD38− population” value ([2]; 1 μM, day 1 to day 12) of the same molecule?
**A.** The value was “increased”.

**Q.** And the “acquisition of the DC phenotype” value ([2]; 1 μM, day 1 to day 12)?
**A.** The value was “inhibited”.

**Q.** And the “expression of co-stimulatory molecules (CD86, CD80) at day 12” value ([2]; 1 μM, day 1 to day 12)?
**A.** Its value is “decreased expression”.

**Q.** And the “expression of the CD54bright population” value ([2]; 1 μM, day 12)?
**A.** The value was “decreased expression”.

**Q.** And the “expression of the CD54dim population” value ([2]; 1 μM, day 12)?
**A.** Its value is “increased expression”.

**Q.** And the “generation of CD14+CD1a− cells” value ([2]; 1 μM, from day 1)?
**A.** The value was “decreased”.

**Q.** And the “generation of CD1a+ cells at day 6” value ([2]; 1 μM, from day 1, particularly CD86+CD1a+ cells)?
**A.** The value was “almost completely prevented”.

**Q.** And the “expression of the CD15 surface molecule (granulocytic marker)” value ([2]; 12 days in the presence of compound, FIG. 22)?
**A.** Its value is “increased”.

**Q.** What about the “cells' ability to proliferate” value ([2]; CD34+ cells) of the same molecule?
**A.** The value was “not to impair”.

**Q.** And the “CD1a+” value [2, 5]?
**A.** The value was 11.5%.

**Q.** What about the “CD14+” value [2, 5] of the same molecule?
**A.** The value was 8.0%.

**Q.** What about the “CD80+” value [2, 5] of the same molecule?
**A.** The value was 13.8%.

**Q.** And the “CD86+” value [2, 5]?
**A.** The value was 18.5%.

**Q.** What about the “CD11c+CD15− population” value ([2]; FIG. 19B) of the same molecule?
**A.** The value was “decrease”.

**Q.** And the “CD11c−CD15+ granulocytic population” value ([2]; FIG. 19B)?
**A.** Its value is “increase”.

**Q.** What about the “Cell Population CD1a+ CD14−” value [2, 6] of the same molecule?
**A.** Its value is “↓”.

**Q.** And the “Cell Population CD1a− CD14+” value [2, 6]?
**A.** Its value is “↓”.

**Q.** And the “Cell Population CD15+” value [2, 6]?
**A.** Its value is “↑”.

**Q.** What about the “Cell Population CD34+ CD38−” value [2, 6] of the same molecule?
**A.** The value was “↑”.

**Q.** What about the “Cell Population CD34− CD38+” value [2, 6] of the same molecule?
**A.** Its value is “↓”.

**Q.** And the “concentration at which increase in CD34+CD38− cells and block in myeloid DC progenitors reached a maximum” value ([2]; dose dependant, day 0 to day 6, FIG. 17)?
**A.** The value was 1 µM.

**Q.** What about the “culture time with compound needed for interference with the CD34 differentiation pathway” value ([2]; effect reversible, FIG. 18) of the same molecule?
**A.** Its value is “at least 3 days”.

**Q.** And the “expression of CD133” value ([2]; multiple doses)?
**A.** The value was “increases”.

**Q.** And the “increase in the CD34+ population” value ([2]; multiple doses between days 0 and 6)?
**A.** The value was “intensified the increase”.

**Q.** What about the “expression of HLA-DR molecules” value ([2]; treated CD34+ progenitors, day 12) of the same molecule?
**A.** Its value is “reduced”.

**Q.** And the “phagocytic capacity at day 12” value ([3]; compound from day 1 to day 12)?
**A.** The value was “strong decrease”.

**Q.** And the “phagocytic capacity at day 12” value ([3]; compound from day 6 to day 12)?
**A.** Its value is “comparable”.

**Q.** And the “cell surface marker expression by day 9” value ([4]; 10 μM from day 0)?
**A.** The value was “no significant effect”.

**Q.** And the “CD11b expression by day 12” value [4, 7]?
**A.** The value was “upregulation”.

**Q.** And the “CD86 and bright I-A^b expression by day 12” value [4, 7]?
**A.** The value was “downregulation”.

**Q.** And the “expression of CD40 and CD80” value ([4]; 10 μM, not shown)?
**A.** Its value is “no effects”.
